32 molecules from patent US8084470B2, “Substituted nicotinamide compounds and uses thereof” (Gruenenthal GmbH, priority 2007, dated 2011) can be followed below.

The target in this experiment is hKCNQ2/3 (Homo sapiens, UniProt O43525+O43526). As to the kind of experiment: Fluorescence assay using a voltage sensitive dye. The format is cell-based. Also on record: expressed in transfected cells; host or cells: CHO-K1. The procedure:
Biological Data Fluorescence Assay Using a Voltage Sensitive Dye
Human CHO-K1 cells expressing KCNQ2/3 channels are cultivated adherently at 37° C., 5% CO2 and 95% humidity in cell culture bottles (e.g. 80 cm^2 TC flasks, Nunc) with DMEM-high glucose (Sigma Aldrich, D7777) including 10% FCS (PAN Biotech, e.g. 3302-P270521) or alternatively with MEM Alpha Medium (1×, liquid, Invitrogen, #22571), 10% fetal calf serum (FCS) (Invitrogen, #10270-106, heat-inactivated) and the necessary selection antibiotics.
Before being distributed for the measurements, the cells are washed with a 1×DPBS buffer without Ca^2+/Mg^2+ (e.g. Invitrogen, #14190-094) and detached from the bottom of the culture vessel by means of Accutase (PAA Laboratories, #L11-007) (incubation with Accutase for 15 min at 37° C.). The cell count then present is determined using a CASY™ cell counter (TCC model, Schärfe System) in order subsequently to apply, according to density optimization for the individual cell line, 20,000-30,000 cells/well/100 μl of the described nutrient medium to 96-well measuring plates of the Corning™ CellBIND™ type (Flat Clear Bottom Black Polystyrene Microplates, #3340). Incubation is then carried out for one hour at room temperature, without gassing or adjusting the humidity, followed by incubation for 24 hours at 37° C., 5% CO2 and 95% humidity.
The voltage-sensitive fluorescent dye from the Membrane Potential Assay Kit (Red™ Bulk format part R8123 for FLIPR, MDS Analytical Technologies™) is prepared by dissolving the contents of a vessel Membrane Potential Assay Kit Red Component A in 200 ml of extracellular buffer (ES buffer, 120 mM NaCl, 1 mM KCl, 10 mM HEPES, 2 mM CaCl2, 2 mM MgCl2, 10 mM glucose; pH 7.4). After removal of the nutrient medium, the cells are washed with 200 μl of ES buffer, then covered with a layer of 100 μl of the dye solution prepared above and incubated for 45 min at room temperature with the exclusion of light.
The fluorescence measurements are carried out with a BMG Labtech FLUOstar™ or BMG Labtech NOVOstar™ or BMG Labtech POLARstar™ instrument (525 nm excitation, 560 nm emission, Bottom Read mode). After incubation of the dye, 50 μl of the test substances in the desired concentrations, or 50 μl of ES buffer for control purposes, are introduced into separate cavities of the measuring plate and incubated for 30 min at room temperature while being shielded from light. The fluorescence intensity of the dye is then measured for 5 min and the fluorescence value F1 of each well is thus determined at a given, constant time. 15 μL of a 100 mM KCl solution ([…]) are then added to each well. The change in fluorescence is subsequently measured until all the relevant measured values have been obtained (mainly 5-30 min). At a given time after KCl application, a fluorescence value F2 is determined, in this case at the time of the fluorescence peak.
For calculation, the fluorescence intensity F2 is compared with the fluorescence intensity F1, and the agonistic activity of the target compound on the potassium channel is determined therefrom. F2 and F1 are calculated as follows:
[formula] In order to determine whether a substance has an agonistic activity,
[formula] for example, can be compared with
[formula] of control cells.
[formula] is determined by adding to the reaction batch only the buffer solution instead of the substance to be tested, determining the value F1K of the fluorescence intensity, adding the potassium ions as described above and measuring a value F2K of the fluorescence intensity. Then F2K and F1K are calculated as follows:
[formula] A substance has an agonistic activity on the potassium channel when
[formula] is greater than
[formula] Independently of the comparison of
[formula] it is also possible to conclude that a target compound has agonistic activity if an increase in
[formula] is to be observed as the dosage of the target compound increases. […]
One may read the EC50 as the concentration needed to bring the measured effect to its halfway point. Low values mean greater potency, high ones weaker potency. Molecule `O=C(NCc1cccs1)c1cccnc1SCCS(=O)(=O)c1ccc(C(F)(F)F)cc1` [Example 102, N-(2-thienylmethyl)-2-[2-[4-(trifluoromethyl)phenyl]sulfonylethylthio]-nicotinamide] had an EC50 of 0.197 µM. That is a sub-micromolar value.

For the molecule `Cc1ccc(CNC(=O)c2cccnc2SCCS(=O)(=O)c2ccccc2)cc1` [Example 5, N-(4-methylbenzyl)-2-(2-(phenylsulfonyl)ethylthio)-nicotinamide], a half-maximal response (EC50) required 1.86 µM. In turn, `Cc1ccc(S(=O)(=O)CCSc2ncccc2C(=O)NCc2cccc(C)c2)cc1` [Example 44, N-(3-methylbenzyl)-2-(2-tosylethylthio)nicotinamide] gave an EC50 of 2.23 µM. Molecule `O=C(NCc1cccs1)c1cccnc1SCCS(=O)(=O)c1ccc(F)cc1` [Example 100, 2-[2-(4-fluorophenyl)sulfonylethylthio]-N-(2-thienylmethyl)-nicotinamide] gave an EC50 of 0.503 µM. As to `O=C(NCc1cc(F)cc(F)c1)c1cccnc1SCCS(=O)(=O)c1ccccc1` [Example 8, N-(3,5-difluorobenzyl)-2-(2-(phenylsulfonyl)ethylthio)nicotinamide], a half-maximal effect (EC50) was put at 1.28 µM.

Consider `O=C(NCc1cccs1)c1cccnc1SCCS(=O)(=O)c1cccc(F)c1` [Example 106, 2-[2-(3-fluorophenyl)sulfonylethylthio]-N-(2-thienylmethyl)-nicotinamide], for which the midpoint of the response, the EC50, lay at 0.187 µM. This EC50 lies about 6.8-fold lower than the previous one. `O=C(NCc1cccc(F)c1)c1cccnc1SCCS(=O)(=O)c1ccccc1` [Example 15, N-(3-fluorobenzyl)-2-(2-(phenylsulfonyl)ethylthio)nicotinamide] showed an EC50 of 2.48 µM.

For `O=C(NCc1ccc(F)c(F)c1)c1cccnc1SCCS(=O)(=O)c1ccccc1` [Example 12, N-(3,4-difluorobenzyl)-2-(2-(phenylsulfonyl)ethylthio)nicotinamide], it took 1.8 µM to reach a half-maximal effect (EC50).

The molecule `Cc1ccc(S(=O)(=O)CCSc2ncccc2C(=O)NCc2cccc(Cl)c2)cc1` [Example 51, N-(3-chlorobenzyl)-2-(2-tosylethylthio)nicotinamide] gave an EC50 of 4.12 µM. The molecule `Cc1ccc(S(=O)(=O)CCSc2ncccc2C(=O)NCc2ccco2)cc1` [Example 39, N-(furan-2-ylmethyl)-2-(2-tosylethylthio)nicotinamide] showed an EC50 of 6.09 µM.

Regarding `Cc1cccc(SCCSc2ncccc2C(=O)NCc2cccs2)c1` [Example 105, 2-[2-(m-tolylthio)ethylthio]-N-(2-thienylmethyl)-nicotinamide], a half-maximal response (EC50) required 0.168 µM. As for `Cc1ccc(S(=O)(=O)CCSc2ncccc2C(=O)NCc2cc(F)cc(F)c2)cc1` [Example 41, N-(3,5-difluorobenzyl)-2-(2-tosylethylthio)nicotinamide], the midpoint of the response, the EC50, lay at 2.39 µM. Compared with the last molecule, the EC50 is about 14-fold higher. `O=C(NCc1ccccc1)c1cccnc1SCCS(=O)(=O)c1ccccc1` [Example 54, N-benzyl-2-(2-(phenylsulfonyl)ethylthio)nicotinamide] gave an EC50 of 2.34 µM. For `Cc1ccc(S(=O)(=O)CCSc2ncccc2C(=O)NCc2ccc(F)c(F)c2)cc1` [Example 45, N-(3,4-difluorobenzyl)-2-(2-tosylethylthio)nicotinamide] the value was 2.14 µM; for `O=C(NCc1cccc(Cl)c1)c1cccnc1SCCS(=O)(=O)c1ccccc1` [Example 25, N-(3-chlorobenzyl)-2-(2-(phenylsulfonyl)ethylthio)nicotinamide], 1.28 µM; for `CC(C)(C)CNC(=O)c1cccnc1SCCS(=O)(=O)c1ccccc1` [Example 60, N-(neopentyl)-2-(2-(phenylsulfonyl)ethylthio)nicotinamide], 9.59 µM. For `COc1ccc(CNC(=O)c2cccnc2SCCS(=O)(=O)c2ccccc2)cc1` [Example 17, N-(4-methoxybenzyl)-2-(2-(phenylsulfonyl)ethylthio)nicotinamide], the EC50 came to 6.52 µM.

`O=C(NCc1ccc(F)cc1)c1cccnc1SCCS(=O)(=O)c1ccccc1` [Example 20, N-(4-fluorobenzyl)-2-(2-(phenylsulfonyl)ethylthio)nicotinamide] registered an EC50 of 1.28 µM.

Take `Cc1ccc(S(=O)(=O)CCSc2ncccc2C(=O)NCc2cccs2)cc1` [Example 36, N-(thiophen-2-ylmethyl)-2-(2-tosylethylthio)nicotinamide]: the EC50 stood at 4.11 µM. Molecule `CN(Cc1ccccc1)C(=O)c1cccnc1SCCS(=O)(=O)c1ccccc1` [Example 55, N-benzyl-N-methyl-2-(2-(phenylsulfonyl)ethylthio)nicotinamide] had an EC50 of 16.5 µM. This EC50 lies about 4-fold higher than the previous one. For `O=C(NCc1cccs1)c1cccnc1SCCS(=O)(=O)c1ccc(Cl)cc1` [Example 99, 2-[2-(4-chlorophenyl)sulfonylethylthio]-N-(2-thienylmethyl)-nicotinamide] the value was 0.234 µM; for `Cc1ccc(S(=O)(=O)CCSc2ncccc2C(=O)NCc2ccc(F)cc2)cc1` [Example 49, N-(4-fluorobenzyl)-2-(2-tosylethylthio)nicotinamide], 7.6 µM; for `Cc1ccc(S(=O)(=O)CCSc2ncccc2C(=O)NCc2cccc(C(F)(F)F)c2)cc1` [Example 52, 2-(2-tosylethylthio)-N-(3-(trifluoromethyl)benzyl)nicotinamide], 1.82 µM. `O=C(NCc1cccs1)c1cccnc1SCCSc1ccccc1` [Example 109, 2-[2-(phenylthio)ethylthio]-N-(2-thienylmethyl)-nicotinamide] came in with an EC50 of 0.075 µM. For `O=C(NCc1ccccc1F)c1cccnc1SCCS(=O)(=O)c1ccccc1` [Example 11, N-(2-fluorobenzyl)-2-(2-(phenylsulfonyl)ethylthio)nicotinamide] the value was 1.17 µM; for `CN(Cc1cccc(Br)c1)C(=O)c1cccnc1SCCS(=O)(=O)c1ccccc1` [Example 13, N-(3-bromobenzyl)-N-methyl-2-(2-(phenylsulfonyl)ethylthio)nicotinamide], 1.4 µM. Turning to `O=C(NCc1ccc(SC(F)(F)F)cc1)c1cccnc1SCCS(=O)(=O)c1ccccc1` [Example 64, 2-(2-(phenylsulfonyl)ethylthio)-N-(4-(trifluoromethylthio)benzyl)-nicotinamide], it took 0.88 µM to reach a half-maximal effect (EC50). This EC50 lies about 1.6-fold lower than the previous one. For `O=C(NCc1ccc(Cl)c(Cl)c1)c1cccnc1SCCS(=O)(=O)c1ccccc1` [Example 19, N-(3,4-dichlorobenzyl)-2-(2-(phenylsulfonyl)ethylthio)nicotinamide] the value was 1.27 µM; for `O=C(NCc1ccco1)c1cccnc1SCCS(=O)(=O)c1ccccc1` [Example 62, N-(furan-2-ylmethyl)-2-(2-(phenylsulfonyl)ethylthio)nicotinamide], 4.39 µM. For `Cc1ccc(S(=O)(=O)CCSc2ncccc2C(=O)NCc2ccccc2F)cc1` [Example 43, N-(2-fluorobenzyl)-2-(2-tosylethylthio)nicotinamide] the value was 1.97 µM; for `CC(C)(C)CCNC(=O)c1cccnc1SCCS(=O)(=O)c1ccccc1` [Example 107, 2-[2-(benzenesulfonyl)ethylthio]-N-(3,3-dimethylbutyl)-nicotinamide], 1.42 µM; for `CC(NC(=O)c1cccnc1SCCS(=O)(=O)c1ccccc1)c1cccc(C(F)(F)F)c1` (centres unmarked) [Example 57, 2-(2-(phenylsulfonyl)ethylthio)-N-(1-(3-(trifluoromethyl)phenyl)ethyl)-nicotinamide], 5.7 µM.
